Key:
Assay type in all cases: functional
[1] = test system: COLO 205; test: Induction of apoptosis in human COLO205 cells assessed as DNA fragmentation at 10 uM
[2] = test system: COLO 205; test: Induction of apoptosis in human COLO205 cells at 10 uM after 24 hrs by Annexin V/propidium iodide staining-based fluorescence microscopy
[3] = test system: COLO 205; test: Induction of apoptosis in human COLO205 cells assessed as necrotic apoptosis cells level at 10 uM after 24 hrs by Annexin V/propidium iodide staining-based fluorescence microscopy
[4] = test system: COLO 205; test: Induction of apoptosis in human COLO205 cells assessed as caspase 9 activation at 10 uM by FLICA
[5] = test system: COLO 205; test: Induction of apoptosis in human COLO205 cells assessed as caspase 3/7 activation at 10 uM by FLICA
[6] = test system: COLO 205; test: Induction of apoptosis in human COLO205 cells assessed as late apoptosis cells level at 10 uM after 24 hrs by Annexin V/propidium iodide staining-based fluorescence microscopy
[7] = test system: COLO 205; test: Induction of apoptosis in human COLO205 cells assessed as viable cells level at 10 uM after 24 hrs by Annexin V/propidium iodide staining-based fluorescence microscopy
[8] = test system: COLO 205; test: Induction of apoptosis in human COLO205 cells assessed as early apoptosis cells level at 10 uM after 24 hrs by Annexin V/propidium iodide staining-based fluorescence microscopy
[9] = test system: COLO 205; test: Induction of apoptosis in human COLO205 cells assessed as caspase 8 activation at 10 uM by FLICA

**Q.** CC[C@@]1(O)C(=O)OCc2c1cc1n(c2=O)Cc2cc3ccccc3nc2-1 [CAMPTOTHECIN] was tested. Which Activity [1] did it give?
**A.** 80.5%

**Q.** And the Activity [2]?
**A.** 53%

**Q.** And the Activity [3]?
**A.** 0%

**Q.** And the Activity [4]?
**A.** 19.5%

**Q.** And the Activity [5]?
**A.** 62%

**Q.** And the Activity [6]?
**A.** 17%

**Q.** What about the Activity [7] of the same molecule?
**A.** 40%

**Q.** And the Activity [8]?
**A.** 42%

**Q.** And the Activity [9]?
**A.** 23.5%
